Source: patent US7943804B2, “Lutein extraction from ozone-treated plant sources” (Board of Supervisors of Louisiana State University and …, priority 2006, dated 2011)
Read-outs that look alike come from different tables or passages of the source.

Experiments:
[1] = tested on: AFB1 mutagenicity in Salmonella typhimurium tester strain TA100; type: cell-based; settings: AFB1 500 ng/plate
[2] = tested on: AFB1 mutagenicity, Salmonella strains; settings: cited from earlier work
[3] = tested on: Salmonella typhimurium tester strain TA100; settings: for Number of Revertants (without use of AFB1): TA100
[4] = tested on: Salmonella typhimurium tester strain TA100; type: cell-based

For CC1=C[C@H](O)CC(C)(C)[C@H]1/C=C/C(C)=C/C=C/C(C)=C/C=C/C=C(C)/C=C/C=C(C)/C=C/C1=C(C)C[C@@H](O)CC1(C)C [Lutein, β, e-carotene-3,3′-diol], the “inhibition of AFB1 mutagenicity, result in words” value ([1]; TA100) was “inhibited AFB1 (500 ng/plate) mutagenicity in a dose-response manner”, the “Number of Revertants” value ([1]; lutein standard 0.02 μg/plate) was 876 ± 34 and the “Percent Inhibition” value ([1]; lutein standard 0.02 μg/plate) was 5.3%. For the same molecule, the “Number of Revertants” value ([1]; lutein standard 0.2 μg/plate) was 813 ± 45, the “Percent Inhibition” value ([1]; lutein standard 0.2 μg/plate) was 12.1% and the “Number of Revertants” value ([1]; lutein standard 0.8 μg/plate) was 741 ± 25. The “Percent Inhibition” value ([1]; lutein standard 0.8 μg/plate) was 19.9%, the “Number of Revertants” value ([1]; lutein standard 2 μg/plate) was 679 ± 39 and the “Percent Inhibition” value ([1]; lutein standard 2 μg/plate) was 26.6%. The “Number of Revertants” value ([1]; lutein standard 10 μg/plate) was 568 ± 50, the “Percent Inhibition” value ([1]; lutein standard 10 μg/plate) was 38.6% and the “mutagenic effect of aflatoxin relative to control” value [2] was 2%. The “inhibition of AFB1 mutagenicity, result in words” value ([2]; test based on Salmonella strains) was “inhibit the mutagenicity of AFB1”, the “mutagenic effect (increase of revertants over the natural rate)” value ([3]; TA100, result in words) was “neither purified lutein nor corn lutein extracts increase the number of revertants over the natural rate” and the “Number of Revertants (without use of AFB1)” value ([3]; lutein standard 0.02 μg/plate) was 247 ± 15. The “Number of Revertants (without use of AFB1)” value ([3]; lutein standard 0.2 μg/plate, listed as Lutein Standard) was 258 ± 10, the “Number of Revertants (without use of AFB1)” value ([3]; lutein standard 0.2 μg/plate, listed as lutein standard) was 254 and the “Number of Revertants (without use of AFB1)” value ([3]; lutein standard 0.8 μg/plate, listed as Lutein Standard) was 261 ± 13. For the same molecule, the “Number of Revertants (without use of AFB1)” value ([3]; lutein standard 0.8 μg/plate, listed as lutein standard) was 261, the “Number of Revertants (without use of AFB1)” value ([3]; lutein standard 2 μg/plate) was 243 ± 8 and the “Number of Revertants (without use of AFB1)” value ([3]; lutein standard 10 μg/plate, listed as Lutein Standard) was 264 ± 12. For the same molecule, the “Number of Revertants (without use of AFB1)” value ([3]; lutein standard 10 μg/plate, listed as lutein standard) was 264.

In the case of CC1=CCCC(C)(C)[C@H]1/C=C/C(C)=C/C=C/C(C)=C/C=C/C=C(C)/C=C/C=C(C)/C=C/C1=C(C)CCCC1(C)C [α-carotene], the “mutagenic effect of aflatoxin relative to control” value [2] is given as 2%.

In the case of aflatoxin B1 [AFB1], the mutagenic potency [4] is reported as “about 925 revertants/plate”.
